Reference: PMC5908784, “Extracellular loops 2 and 3 of the calcitonin receptor selectively modify agonist binding and efficacy” (Biochemical Pharmacology, 2018)
Substitutions are numbered along the chain they refer to.

Legend:
Format in all cases: cell-based
hCTR Y284A = target: T1, hCTR Y284A (Homo sapiens, UniProt P30988, Y284A); assay: cAMP accumulation; details: cAMP maximal response, mean ± S.E.M., SEM
T1 construct: expressed in transfected cells
T1 sequence (P30988 25-474 Y284A): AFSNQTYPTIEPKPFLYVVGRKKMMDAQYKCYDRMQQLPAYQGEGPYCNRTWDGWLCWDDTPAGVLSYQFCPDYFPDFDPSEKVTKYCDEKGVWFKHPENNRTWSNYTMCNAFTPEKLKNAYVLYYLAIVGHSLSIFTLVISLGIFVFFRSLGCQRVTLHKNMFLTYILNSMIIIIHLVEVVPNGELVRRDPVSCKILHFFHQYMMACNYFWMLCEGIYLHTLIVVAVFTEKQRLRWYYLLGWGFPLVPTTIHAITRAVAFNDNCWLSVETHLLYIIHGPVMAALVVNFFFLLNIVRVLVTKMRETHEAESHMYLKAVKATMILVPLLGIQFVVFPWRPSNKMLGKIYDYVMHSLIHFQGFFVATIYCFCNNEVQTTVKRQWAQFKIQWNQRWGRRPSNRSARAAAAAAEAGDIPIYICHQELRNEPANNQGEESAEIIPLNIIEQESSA
Procedure: (§1) Cells (2.5 × 10^4 cells/well) were seeded into 96-well plates and incubated overnight. Cells were stimulated with increasing concentrations of ligands for 30 min in the presence of IBMX. The liquid was discarded, changed to absolute ethanol and volatilized to dryness at room temperature. […] Data were normalized to the response of 100 μM forskolin.
(§2) Data were corrected for radioligand occupancy using the Cheng-Prusoff equation in Prism; as such data are reported as pKi. Emax and EC50 were estimated from concentration-response curves using with a 3-parameter logistic equation in Prism (v7). These values are a composite of functional affinity, efficacy and stimulus response coupling. […] Significance was accepted at P < 0.05.

hCTR R281A = target: T2, hCTR R281A (Homo sapiens, UniProt P30988, R281A); assay: cAMP accumulation; details: cAMP maximal response, mean ± S.E.M., SEM
T2 construct: expressed in transfected cells
T2 sequence (P30988 25-474 R281A): T1 sequence (P30988 25-474 Y284A) with R257A, A260Y
Procedure: as §1, §2

hCTR K366A = target: T3, hCTR K366A (Homo sapiens, UniProt P30988, K366A); assay: cAMP accumulation; details: cAMP maximal response, mean ± S.E.M., SEM
T3 construct: c-Myc (N); expressed in transfected cells
T3 sequence (P30988 25-474 K366A): T1 sequence (P30988 25-474 Y284A) with A260Y, K342A
Procedure: as §1, §2

hCTR F359A [1] = target: T4, hCTR F359A (Homo sapiens, UniProt P30988, F359A); assay: cAMP accumulation; details: cAMP maximal response, mean ± S.E.M., SEM
T4 construct: expressed in transfected cells
T4 sequence (P30988 25-474 F359A): T1 sequence (P30988 25-474 Y284A) with A260Y, F335A
Procedure: as §1, §2

hCTR Y374A = target: T5, hCTR Y374A (Homo sapiens, UniProt P30988, Y374A); assay: cAMP accumulation; details: cAMP maximal response, mean ± S.E.M., SEM
T5 construct: c-Myc (N); expressed in transfected cells
T5 sequence (P30988 25-474 Y374A): T1 sequence (P30988 25-474 Y284A) with A260Y, Y350A
Procedure: as §1, §2

hCTR F359A [2] = target: T4, hCTR F359A; assay: IP1 accumulation; details: read-out: Emax (% WT); SEM
In short: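 Concentration-response curves were fitted to a 3-parameter logistic model to estimate EC50 and Emax. Cells had been exposed to ligand for 60 min with LiCl, and lysate IP1 determined by HTRF, with normalization to 100 μM ATP.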

Compound: CC(C)C[C@H](NC(=O)[C@H](CCCCN)NC(=O)CNC(=O)[C@H](CC(C)C)NC(=O)[C@@H](NC(=O)[C@@H]1CSSC[C@H](N)C(=O)N[C@@H](CO)C(=O)N[C@@H](CC(N)=O)C(=O)N[C@@H](CC(C)C)C(=O)N[C@@H](CO)C(=O)N[C@@H]([C@@H](C)O)C(=O)N1)C(C)C)C(=O)N[C@@H](CO)C(=O)N[C@@H](CCC(N)=O)C(=O)N[C@@H](CCC(=O)O)C(=O)N[C@@H](CC(C)C)C(=O)N[C@@H](Cc1c[nH]cn1)C(=O)N[C@@H](CCCCN)C(=O)N[C@@H](CC(C)C)C(=O)N[C@@H](CCC(N)=O)C(=O)N[C@H](C(=O)N[C@@H](Cc1ccc(O)cc1)C(=O)N1CCC[C@H]1C(=O)N[C@@H](CCCNC(=N)N)C(=O)N[C@H](C(=O)N[C@@H](CC(N)=O)C(=O)N[C@H](C(=O)NCC(=O)N[C@@H](CO)C(=O)NCC(=O)N[C@H](C(=O)N1CCC[C@H]1C(N)=O)[C@@H](C)O)[C@@H](C)O)[C@@H](C)O)[C@@H](C)O [sCT]
- Emax (hCTR Y284A): 111 ± 11%
- Emax (hCTR R281A): 119 ± 5%
- Emax (hCTR K366A): 81 ± 5%
- Emax (hCTR F359A [1]): 84 ± 4%
- Emax (hCTR Y374A): 96 ± 5%
- Emax (hCTR F359A [2]): 125 ± 6%
